In paper PMC9151520 (Archives of Toxicology, 2022):
“And” between values parts separate entries of the source, which are not always exact repeats. Equal entries are not always repeated. Structures can show the parent of a compound that is named as a salt. Where two headings read alike, the source gives them in different places.

Key:
[1] = system: p53 signaling (p53RE-bla HCT-116 cells)
[2] = system: p53 signaling (p53RE-bla HCT-116 cells); test: cells; format: cell-based; conditions: Homo sapiens; for EC50: HCT-116; for Emax: HCT-116, read-out: efficacy
[3] = system: p53 signaling (p53RE-bla HCT-116 cells); test: cells; conditions: Homo sapiens
[4] = system: p53 signaling (p53RE-bla HCT-116 cells); test: cells; format: cell-based
[5] = system: p53 signaling (p53RE-bla HCT-116 cells); test: cells; conditions: Homo sapiens; remark: listed apart in the source
[6] = system: p53 signaling (p53RE-bla HCT-116 cells); test: cells; format: cell-based; conditions: Homo sapiens; for EC50: HCT-116, 0.5 h; for Emax: HCT-116, read-out: efficacy
[7] = system: p53 signaling (p53RE-bla HCT-116 cells); remark: listed apart in the source
[8] = HCT-116, read-out: p53 activation EC50, HLM
[9] = read-out: p53 activation EC50, RLM
[10] = HCT-116, read-out: p53 activation EC50, RLM
[11] = Homo sapiens, HCT-116, read-out: p53 activation EC50, No MS
[12] = read-out: p53 activation EC50, No MS
[13] = HCT-116, read-out: p53 activation efficacy
[14] = Homo sapiens, HCT-116, read-out: p53 activation efficacy
[15] = HCT-116, read-out: p53 activation EC50

Structure (SMILES)	Viability EC50, HLM (p53RE-bla HCT-116 cells)	Viability EC50, No MS (p53RE-bla HCT-116 cells)	Viability EC50, RLM (p53RE-bla HCT-116 cells)	Viability Efficacy, HLM (p53RE-bla HCT-116 cells)	Viability Efficacy, No MS (p53RE-bla HCT-116 cells)	Viability Efficacy, RLM (p53RE-bla HCT-116 cells)	p53 activation EC50, HLM [1]	EC50 [3, 8] [µM]	p53 activation EC50, No MS [4]	p53 activation Efficacy, No MS [4]	p53 activation EC50, RLM [7]	Viability EC50 (p53RE-bla HCT-116 cells)	Viability efficacy (p53RE-bla HCT-116 cells)	p53 activation EC50 [1]	other results
CCOP(=S)(OCC)SCn1nnc2ccccc2c1=O [Azinphos-ethyl]	inactive	inactive	inactive	inactive	inactive	inactive	inactive	1.98	inactive	inactive					EC50 [2]: 2.16 µM; EC50 ([5]; HCT-116): 2.17 µM; Emax ([5]; HCT-116, read-out: efficacy): 47.5%; EC50 [6]: 22.8 µM
CNC(=O)Oc1ccccc1C(C)C [Isoprocarb]	inactive	inactive	inactive	inactive	inactive	inactive	inactive	8.87	inactive	inactive					EC50 [7, 9]: 12.5 µM; EC50 [5, 10]: 12 µM
Nc1nc(N)c2nc(-c3ccccc3)c(N)nc2n1 [Triamterene]	inactive	inactive	inactive	inactive	inactive	inactive	inactive	16.4							EC50 [7, 9]: 42.4 µM; EC50 [4, 11]: 28.7 µM; EC50 [4, 12]: 27.6 µM; EC50 [5, 10]: 30.5 µM
COP(=S)(OC)SCN1C(=O)c2ccccc2C1=O [Phosmet]	inactive	inactive	inactive	inactive	inactive	inactive	inactive	7.57	inactive	inactive					EC50 [2]: 8.04 µM; Emax [2]: 49%; EC50 ([5]; HCT-116): 11.6 µM; Emax ([5]; HCT-116, read-out: efficacy): 52.6%; EC50 [6]: 18.7 µM; Emax [6]: 48.2%
Oc1c(Cl)cc(Cl)c(Cl)c1Cl [2,3,4,6-Tetrachlorophenol]	inactive	inactive	inactive	inactive	inactive	inactive	inactive	34.9		39.2893%	inactive				EC50 [4, 11]: 17.7 µM; Emax ([4]; Homo sapiens, HCT-116, read-out: p53 activation Efficacy, No MS): 37.3%; EC50 [4, 12]: 34.6 µM; EC50 [5, 10]: 44.8 µM
COC(=O)N(OC)c1ccccc1COc1ccn(-c2ccc(Cl)cc2)n1 [Pyraclostrobin]												inactive	inactive	inactive	p53 activation EC50 [7]: inactive; p53 activation efficacy [7]: inactive; Emax [3, 13]: 36.3%; p53 activation efficacy [4]: 41.5523; Emax [4, 14]: 36.4%; EC50 ([4]; read-out: p53 activation EC50): 2.62 µM
CCOP(=O)(OCC)Oc1cc(C)nc(C(C)C)n1 [Diazoxon]												inactive	inactive	inactive	EC50 [2]: 13.9 µM; Emax [2]: 61.3%; EC50 [3, 15]: 20.2 µM; Emax [3, 13]: 39.6%; p53 activation EC50 [4]: inactive; p53 activation efficacy [4]: inactive; EC50 ([5]; HCT-116): 6.57 µM; Emax ([5]; HCT-116, read-out: efficacy): 43.6%; EC50 [6]: 3.83 µM; Emax [6]: 58.5%
Oc1c(Cl)c(Cl)c(Cl)c(Cl)c1Cl [Pentachlorophenol]															EC50, p53 activation, cherry pick confirmation [7]: inactive; EC50, p53 activation, primary screening [7]: inactive; Efficacy, p53 activation, cherry pick confirmation [7]: inactive; Efficacy, p53 activation, primary screening [7]: inactive; EC50, viability, cherry pick confirmation (p53RE-bla HCT-116 cells): inactive; EC50, viability, primary screening (p53RE-bla HCT-116 cells): inactive; Efficacy, viability, cherry pick confirmation (p53RE-bla HCT-116 cells): inactive; Efficacy, viability, primary screening (p53RE-bla HCT-116 cells): inactive; EC50, p53 activation, cherry pick confirmation [1]: inactive; Efficacy, p53 activation, cherry pick confirmation [1]: inactive; EC50 ([3]; HCT-116, read-out: EC50, p53 activation, primary screening): 15.5 µM; Emax ([3]; HCT-116, read-out: Efficacy, p53 activation, primary screening): 30.9%; EC50 ([4]; Homo sapiens, HCT-116, read-out: EC50, p53 activation, cherry pick confirmation): 14.1 µM; EC50 ([4]; Homo sapiens, HCT-116, read-out: EC50, p53 activation, primary screening): 13.4 µM; Emax ([4]; Homo sapiens, HCT-116, read-out: Efficacy, p53 activation, cherry pick confirmation): 32.5%; Emax ([4]; Homo sapiens, HCT-116, read-out: Efficacy, p53 activation, primary screening): 47.3%
Nc1ccn([C@@H]2O[C@H](CO)[C@@H](O)[C@@H]2O)c(=O)n1 [Cytarabine hydrochloride]												inactive	inactive	inactive	p53 activation EC50 [7]: inactive; p53 activation efficacy [7]: inactive; EC50 [3, 15]: 3.49 µM; p53 activation efficacy [4]: 74.252
O=c1ccc2ccccc2o1 [Coumarin]	inactive	inactive	inactive	inactive	inactive	inactive	inactive	28.6	inactive	inactive	inactive				p53 activation Efficacy, RLM [7]: inactive
CNC(=O)Oc1ccc2c(c1)[C@]1(C)CCN(C)[C@@H]1N2C [Physostigmine]	inactive	inactive	inactive	inactive	inactive	inactive	inactive	7.07	inactive	inactive	inactive				p53 activation Efficacy, RLM [7]: inactive
Nc1nc(Cl)nc2c1ncn2[C@H]1C[C@H](O)[C@@H](CO)O1 [Cladribine]												inactive	inactive	inactive	p53 activation efficacy [7]: 33.0267; Emax [3, 13]: 47.1%; p53 activation efficacy [4]: 91.229; Emax [4, 14]: 81%; EC50 ([4]; read-out: p53 activation EC50): 0.665 µM; Emax [5, 13]: 45.7%
COP(=S)(OC)Oc1ccc(S(N)(=O)=O)cc1 [Cythioate]	inactive	inactive	inactive	inactive	inactive	inactive	inactive	3.59	inactive	inactive	inactive				p53 activation Efficacy, RLM [7]: inactive
Nc1ccc2c(O)cc(S(=O)(=O)O)cc2c1												inactive	inactive	inactive	p53 activation efficacy [7]: 57.1256 and 31.0337; EC50 ([7]; read-out: p53 activation EC50): 10.9 µM; Emax [3, 13]: 27%; p53 activation efficacy [4]: 61.5673 and 83.6027
N=C(N)NC(=O)c1nc(Cl)c(N)nc1N [Amiloride hydrochloride]	inactive	inactive	inactive	inactive	inactive	inactive	inactive	38.7	inactive	inactive	inactive				p53 activation Efficacy, RLM [7]: inactive
Cl[C@H]1[C@H](Cl)[C@@H](Cl)[C@H](Cl)[C@@H](Cl)[C@@H]1Cl [beta-Hexachlorocyclohexane]	inactive	inactive	inactive	inactive	inactive	inactive	inactive	47.3	inactive	inactive	inactive				p53 activation Efficacy, RLM [7]: inactive
Nc1ccc(-c2ccc(N)c(Cl)c2)cc1Cl [3,3'-Dichlorobenzidine]												inactive	inactive	inactive	p53 activation EC50 [7]: inactive; p53 activation efficacy [7]: inactive; Emax [3, 13]: 33.9%; EC50 ([4]; read-out: p53 activation EC50): 16.4 µM
